Reference: patent US7799809B2, “Carboxamide compounds and their use as calpain inhibitors” (Abbott GmbH & Co. KG, priority 2006, dated 2010)

Legend:
Type in all cases: biochemical
cathepsin K = target: T1, cathepsin K (Homo sapiens, UniProt P43235); assay: Cathepsin K enzyme inhibition in vitro (kinetic fluorescence assay); conditions: cathepsin K activated from recombinant human procathepsin K vs calpain I
T1 construct: purchased Calbiochem 342001; host or cells: E. coli
T1 sequence (P43235 115-329): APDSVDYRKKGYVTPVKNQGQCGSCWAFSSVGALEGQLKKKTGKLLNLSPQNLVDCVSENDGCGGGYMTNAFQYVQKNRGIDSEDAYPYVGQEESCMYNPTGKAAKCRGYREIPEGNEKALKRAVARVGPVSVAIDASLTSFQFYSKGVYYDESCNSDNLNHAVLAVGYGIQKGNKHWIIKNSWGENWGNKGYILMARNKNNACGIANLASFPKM

cathepsin B = target: T2, cathepsin B (Homo sapiens, UniProt P07858); assay: Cathepsin B enzyme inhibition in vitro (kinetic fluorescence assay); conditions: cathepsin B isolated from human liver vs calpain I
T2 construct: cathepsin B—isolated from human liver (Calbiochem #219362); purchased Calbiochem 219362; host or cells: human liver (tissue-derived)
Procedure, shortened: (§1)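 Inhibition is measured at room temperature in cysteine-containing MES buffer, pH 6.0, by continuous fluorescence at 460 nm. Cathepsin S (0.5 nM) uses 20 μM Z-Val-Val-Arg-AMC; L (1 nM) and B (0.25 nM) use Z-Phe-Arg-AMC at 2 and 100 μM respectively.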

cathepsin S = target: T3, cathepsin S (Homo sapiens, UniProt P25774); assay: Cathepsin S enzyme inhibition in vitro (kinetic fluorescence assay); conditions: recombinant human cathepsin S vs calpain I
T3 construct: purchased Calbiochem 219343; host or cells: E. coli
Procedure, shortened: as §1

cathepsin L = target: T4, cathepsin L (Homo sapiens, UniProt P07711); assay: Cathepsin L enzyme inhibition in vitro (kinetic fluorescence assay); conditions: cathepsin L isolated from human liver vs calpain I
T4 construct: cathepsin L—isolated from human liver (Calbiochem #219402); purchased Calbiochem 219402; host or cells: human liver (tissue-derived)
Procedure, shortened: as §1

T3 sequence (P25774 115-331): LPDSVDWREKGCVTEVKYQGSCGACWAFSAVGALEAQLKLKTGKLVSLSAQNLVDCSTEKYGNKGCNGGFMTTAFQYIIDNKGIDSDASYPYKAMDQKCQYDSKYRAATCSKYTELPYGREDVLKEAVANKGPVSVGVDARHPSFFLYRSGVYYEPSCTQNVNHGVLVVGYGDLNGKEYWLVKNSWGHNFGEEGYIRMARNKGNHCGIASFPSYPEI
T4 sequence (P07711 114-333): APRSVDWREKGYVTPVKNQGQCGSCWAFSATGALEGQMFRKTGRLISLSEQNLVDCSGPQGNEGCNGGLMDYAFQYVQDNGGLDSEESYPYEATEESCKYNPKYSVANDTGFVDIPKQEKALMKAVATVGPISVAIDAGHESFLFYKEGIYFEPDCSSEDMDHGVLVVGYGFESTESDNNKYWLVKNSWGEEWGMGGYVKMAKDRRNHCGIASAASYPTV

Row | SMILES | Sel cat. K: Ki(cathepsin K)/Ki(calpain) ratio (cathepsin K) | Sel cat. B: Ki(cathepsin B)/Ki(calpain) ratio (cathepsin B) | Sel cat. S: Ki(cathepsin S)/Ki(calpain) ratio (cathepsin S) | Sel cat. L: Ki(cathepsin L)/Ki(calpain) ratio (cathepsin L)
1 | COc1ccc(CC(NC(=O)c2cccnc2-n2ccc(-c3ccccc3)n2)C(=O)C(N)=O)cc1 (stereo not shown) [Example 80, N-[3-Amino-1-(4-methoxybenzyl)-2,3-dioxopropyl]-2-(3-phenyl-1H-pyrazol-1-yl)nicotinamide] | + (+ means 10≦Ki(cathepsin K)/Ki(calpain)<30) | ++ (++ means a Ki(cathepsin B)/Ki(calpain) ratio of ≧30) | ++ (++ means a Ki(cathepsin S)/Ki(calpain) ratio of ≧100) | ++ (++ means a Ki(cathepsin L)/Ki(calpain) ratio of ≧50)
2 | COc1ccc(CC(NC(=O)c2cccnc2-n2ccc(-c3ccc(F)cc3)n2)C(=O)C(N)=O)cc1 (stereo not shown) [Example 81, N-[3-Amino-1-(4-methoxybenzyl)-2,3-dioxopropyl]-2-[3-(4-fluorophenyl)-1H-pyrazol-1-yl]nicotinamide] | + (+ means 10≦Ki(cathepsin K)/Ki(calpain)<30) | + (+ means 10≦Ki(cathepsin B)/Ki(calpain)<30) | ++ (++ means a Ki(cathepsin S)/Ki(calpain) ratio of ≧100) | ++ (++ means a Ki(cathepsin L)/Ki(calpain) ratio of ≧50)
3 | NC(=O)C(=O)C(Cc1ccccc1)NC(=O)c1cccnc1-n1ccc(-c2cccc(C(F)(F)F)c2)n1 (stereo not shown) [Example 83, N-(3-Amino-1-benzyl-2,3-dioxopropyl)-2-{3-[3-(trifluoromethyl)phenyl]-1H-pyrazol-1-yl}nicotinamide] | ++ (++ means a Ki(cathepsin K)/Ki(calpain) ratio of ≧30) | + (+ means 10≦Ki(cathepsin B)/Ki(calpain)<30) | ++ (++ means a Ki(cathepsin S)/Ki(calpain) ratio of ≧100) | ++ (++ means a Ki(cathepsin L)/Ki(calpain) ratio of ≧50)
4 | NC(=O)C(=O)C(Cc1ccccc1)NC(=O)c1cccnc1-n1ccc(-c2c(F)cccc2F)n1 (stereo not shown) [Example 85, N-[3-Amino-2,3-dioxo-1-(phenylmethyl)propyl]-2-[3-(2,6-difluorophenyl)-1H-pyrazol-1-yl]pyridine-3-carboxamide] | ++ (++ means a Ki(cathepsin K)/Ki(calpain) ratio of ≧30) | + (+ means 10≦Ki(cathepsin B)/Ki(calpain)<30) | ++ (++ means a Ki(cathepsin S)/Ki(calpain) ratio of ≧100) | ++ (++ means a Ki(cathepsin L)/Ki(calpain) ratio of ≧50)
5 | CC(C)c1ccc(-c2ccn(-c3ncccc3C(=O)NC(Cc3ccccc3)C(=O)C(N)=O)n2)cc1 (stereo not shown) [Example 87, N-[3-Amino-2,3-dioxo-1-(phenylmethyl)propyl]-2-{3-[4-(1-methylethyl)phenyl]-1H-pyrazol-1-yl}pyridine-3-carboxamide] | ++ (++ means a Ki(cathepsin K)/Ki(calpain) ratio of ≧30) | ++ (++ means a Ki(cathepsin B)/Ki(calpain) ratio of ≧30) | ++ (++ means a Ki(cathepsin S)/Ki(calpain) ratio of ≧100) | ++ (++ means a Ki(cathepsin L)/Ki(calpain) ratio of ≧50)
6 | Cl.NC(=O)C(=O)C(Cc1cccnc1)NC(=O)c1cccnc1-n1ccc(-c2ccccc2)n1 (stereo not shown) [Example 88, N-[3-Amino-2,3-dioxo-1-(pyridin-3-ylmethyl)propyl]-2-(3-phenyl-1H-pyrazol-1-yl)pyridine-3-carboxamide hydrochloride] | ++ (++ means a Ki(cathepsin K)/Ki(calpain) ratio of ≧30) | + (+ means 10≦Ki(cathepsin B)/Ki(calpain)<30) | ++ (++ means a Ki(cathepsin S)/Ki(calpain) ratio of ≧100) | ++ (++ means a Ki(cathepsin L)/Ki(calpain) ratio of ≧50)
7 | COc1ccccc1-c1ccn(-c2ncccc2C(=O)NC(Cc2ccccc2)C(=O)C(N)=O)n1 (stereo not shown) [Example 90, N-[3-Amino-2,3-dioxo-1-(phenylmethyl)propyl]-2-{3-[2-(methyloxy)phenyl]-1H-pyrazol-1-yl}pyridine-3-carboxamide] | + (+ means 10≦Ki(cathepsin K)/Ki(calpain)<30) | ++ (++ means a Ki(cathepsin B)/Ki(calpain) ratio of ≧30) | ++ (++ means a Ki(cathepsin S)/Ki(calpain) ratio of ≧100) | ++ (++ means a Ki(cathepsin L)/Ki(calpain) ratio of ≧50)
8 | NC(=O)C(=O)C(Cc1ccccc1)NC(=O)c1cccnc1-n1ccc(-c2cc(F)cc(F)c2)n1 (stereo not shown) [Example 91, N-[3-Amino-2,3-dioxo-1-(phenylmethyl)propyl]-2-[3-(3,5-difluorophenyl)-1H-pyrazol-1-yl]pyridine-3-carboxamide] | + (+ means 10≦Ki(cathepsin K)/Ki(calpain)<30) | ++ (++ means a Ki(cathepsin B)/Ki(calpain) ratio of ≧30) | ++ (++ means a Ki(cathepsin S)/Ki(calpain) ratio of ≧100) | ++ (++ means a Ki(cathepsin L)/Ki(calpain) ratio of ≧50)
9 | COc1ccc(CC(NC(=O)c2cccnc2-n2ccc(-c3ccccc3F)n2)C(=O)C(N)=O)cc1 (stereo not shown) [Example 92, N-(3-Amino-1-{[4-(methyloxy)phenyl]methyl}-2,3-dioxopropyl)-2-[3-(2-fluorophenyl)-1H-pyrazol-1-yl]pyridine-3-carboxamide] | + (+ means 10≦Ki(cathepsin K)/Ki(calpain)<30) | ++ (++ means a Ki(cathepsin B)/Ki(calpain) ratio of ≧30) | ++ (++ means a Ki(cathepsin S)/Ki(calpain) ratio of ≧100) | ++ (++ means a Ki(cathepsin L)/Ki(calpain) ratio of ≧50)
10 | Cc1ccccc1-c1ccn(-c2ncccc2C(=O)NC(Cc2ccccc2)C(=O)C(N)=O)n1 (stereo not shown) [Example 93, N-[3-Amino-2,3-dioxo-1-(phenylmethyl)propyl]-2-[3-(2-methylphenyl)-1H-pyrazol-1-yl]pyridine-3-carboxamide] | + (+ means 10≦Ki(cathepsin K)/Ki(calpain)<30) | ++ (++ means a Ki(cathepsin B)/Ki(calpain) ratio of ≧30) | ++ (++ means a Ki(cathepsin S)/Ki(calpain) ratio of ≧100) | ++ (++ means a Ki(cathepsin L)/Ki(calpain) ratio of ≧50)
11 | NC(=O)C(=O)C(Cc1ccccc1)NC(=O)c1cccnc1-n1ccc(-c2ccc(F)cc2F)n1 (stereo not shown) [Example 94, N-[3-Amino-2,3-dioxo-1-(phenylmethyl)propyl]-2-[3-(2,4-difluorophenyl)-1H-pyrazol-1-yl]pyridine-3-carboxamide] | + (+ means 10≦Ki(cathepsin K)/Ki(calpain)<30) | ++ (++ means a Ki(cathepsin B)/Ki(calpain) ratio of ≧30) | ++ (++ means a Ki(cathepsin S)/Ki(calpain) ratio of ≧100) | ++ (++ means a Ki(cathepsin L)/Ki(calpain) ratio of ≧50)
12 | NC(=O)C(=O)C(Cc1ccccc1)NC(=O)c1cccnc1-n1ccc(-c2c(Cl)cccc2Cl)n1 (stereo not shown) [Example 95, N-[3-Amino-2,3-dioxo-1-(phenylmethyl)propyl]-2-[3-(2,6-dichlorophenyl)-1H-pyrazol-1-yl]pyridine-3-carboxamide] | ++ (++ means a Ki(cathepsin K)/Ki(calpain) ratio of ≧30) | ++ (++ means a Ki(cathepsin B)/Ki(calpain) ratio of ≧30) | ++ (++ means a Ki(cathepsin S)/Ki(calpain) ratio of ≧100) | ++ (++ means a Ki(cathepsin L)/Ki(calpain) ratio of ≧50)
13 | NC(=O)C(=O)C(Cc1ccccc1)NC(=O)c1cccnc1-n1ccc(-c2cccc(OCc3ccccc3)c2)n1 (stereo not shown) [Example 96, N-[3-Amino-2,3-dioxo-1-(phenylmethyl)propyl]-2-(3-{3-[(phenylmethyl)oxy]phenyl}-1H-pyrazol-1-yl)pyridine-3-carboxamide] | ++ (++ means a Ki(cathepsin K)/Ki(calpain) ratio of ≧30) | ++ (++ means a Ki(cathepsin B)/Ki(calpain) ratio of ≧30) | ++ (++ means a Ki(cathepsin S)/Ki(calpain) ratio of ≧100) | ++ (++ means a Ki(cathepsin L)/Ki(calpain) ratio of ≧50)
